Reference: patent US8134015B2, “Compound inhibiting in vivo phosphorous transport and medicine containing the same” (Kyowa Hakko Kirin Co., Ltd., priority 2003, dated 2012)

The compounds below were run against T1, rat NaPi-2b (Rattus norvegicus, UniProt Q9JJ09) (assay: Sodium-dependent phosphate uptake of Xenopus oocytes which expressed NaPi-2b (32P)). Details: Xenopus oocytes expressing rat NaPi-2b, 32P radioactive phosphorus; read-out: IC50 (phosphate uptake inhibitory activity).
T1 construct: expressed in transfected cells; host or cells: Xenopus oocytes injected with cRNA
T1 sequence (Q9JJ09 1-695): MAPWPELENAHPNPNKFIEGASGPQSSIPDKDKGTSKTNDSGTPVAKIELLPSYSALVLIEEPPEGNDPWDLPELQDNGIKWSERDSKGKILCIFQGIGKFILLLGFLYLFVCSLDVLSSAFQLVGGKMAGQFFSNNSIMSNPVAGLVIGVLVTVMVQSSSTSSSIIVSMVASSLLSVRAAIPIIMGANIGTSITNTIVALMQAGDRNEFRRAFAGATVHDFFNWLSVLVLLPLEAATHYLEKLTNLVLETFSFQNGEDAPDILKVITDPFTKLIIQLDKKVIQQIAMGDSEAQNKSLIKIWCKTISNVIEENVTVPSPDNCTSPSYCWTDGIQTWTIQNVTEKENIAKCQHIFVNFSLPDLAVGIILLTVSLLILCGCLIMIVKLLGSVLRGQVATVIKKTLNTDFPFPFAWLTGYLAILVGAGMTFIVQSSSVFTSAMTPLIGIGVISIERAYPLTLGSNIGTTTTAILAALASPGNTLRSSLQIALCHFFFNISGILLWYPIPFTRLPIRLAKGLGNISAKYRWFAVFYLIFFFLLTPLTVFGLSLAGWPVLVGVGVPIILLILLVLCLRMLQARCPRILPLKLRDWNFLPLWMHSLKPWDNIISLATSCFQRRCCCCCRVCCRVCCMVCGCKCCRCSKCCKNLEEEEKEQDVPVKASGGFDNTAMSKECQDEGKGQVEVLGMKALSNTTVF
Format: cell-based
How it was run: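 Steps: rat NaPi-2b cDNA cloned from small intestine; cRNA made and injected into oocytes; 2-day expression; 32P phosphate uptake with compound; % inhibition at 300/100 μM taken from one curve.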
`Cc1ccc(/C=N/n2c(-c3cccc(CSCCO)c3)nc3ccc(Br)cc3c2=O)cc1C` [Compound 697, 6-Bromo-3-[(3,4-dimethyl-benzylidene-)-amino]-2-[3-(2-hydroxy-ethylsulfanylmethyl)-phenyl]-3H-quinazolin-4-one] was tested, and the IC50 was < 3 µM.
With `O=c1c2cc(Br)ccc2nc(-c2cccc(CSCCO)c2)n1/N=C/c1ccc(Cl)c(C(F)(F)F)c1` [Compound 698, 6-Bromo-3-[(4-chloro-3-trifluoromethyl-benzylidene-)-amino]-2-[3-(2-hydroxy-ethylsulfanylmethyl)-phenyl]-3H-quinazolin-4-one] the IC50 was < 3 µM.
With `O=C(Nc1ccc(Br)cc1C(=O)N/N=C/c1cccc(F)c1)c1ccc(CNCCN2CCOCC2)cc1` [Compound 713, N-[4-Bromo-2-(3-fluoro-benzylidene-hydrazinocarbonyl)-phenyl]-4-[(2-morpholin-4-yl-ethylamino)-methyl]-benzamide] the IC50 was 15.5 µM.
In the case of `O=C(Nc1ccc(Br)cc1C(=O)N/N=C/c1ccc(Cl)c(C(F)(F)F)c1)c1ccc(CNCCN2CCOCC2)cc1` [Compound 714, N-[4-Bromo-2-(4-chloro-3-trifluoromethyl-benzylidene-hydrazinocarbonyl)-phenyl]-4-[(2-morpholin-4-yl-ethylamino)-methyl]-benzamide], the IC50 is reported as 3.52 µM.
`Cc1cccc(/C=N/NC(=O)c2cc(Br)ccc2NC(=O)c2ccc(CN(CC(C)O)CC(C)O)cc2)c1` (stereo not shown) [Compound 718, 4-{[Bis-(2-hydroxy-propyl)-amino]-methyl}-N-[4-bromo-2-(3-methyl-benzylidene-hydrazinocarbonyl)-phenyl]-benzamide] was tested, and the IC50 was 6.91 µM.

Same assay, conditions: phosphate uptake, oocytes expressing rat NaPi-2b; 300 μM, determined from inhibition curve
Work on `Cc1cccc(/C=N/NC(=O)c2cc(Cl)ccc2NC(=O)c2cccc(CSCc3ccco3)c2)c1` [Compound 699, N-[4-Chloro-2-(3-methyl-benzylidene-hydrazinocarbonyl)-phenyl]-3-(furan-2-ylmethylsulfanylmethyl)-benzamide] yielded an inhibition at 300 µM of 58.4%.
Compound `O=C(Nc1ccc(Cl)cc1C(=O)N/N=C/c1ccc(Cl)c(C(F)(F)F)c1)c1cccc(CSCc2ccco2)c1` [Compound 700, N-[4-Chloro-2-(4-chloro-3-trifluoromethyl-benzylidene-hydrazinocarbonyl)-phenyl]-3-(furan-2-ylmethylsulfanylmethyl)-benzamide] has an inhibition at 300 µM of 40.3%.
`CN(CCCN(C)Cc1cccc(C(=O)Nc2ccc(Cl)cc2C(=O)N/N=C/c2ccc(F)cc2)c1)Cc1cccc(C(=O)Nc2ccc(Cl)cc2C(=O)N/N=C/c2ccc(F)cc2)c1` [Compound 701, N1-[4-Chloro-2-({2-[(E)-1-(4-fluorophenyl)methylidene]-hydrazino}carbonyl}phenyl}-3-{[{3-[(3-{[4-chloro-2-([2-[(E)-1-(4-fluorophenyl)methylidene]hydrazino}carbonyl}anilino}carbonyl}benzyl}-(methyl)amino)propyl)(methyl)amino]methyl]benzamide] gave an inhibition at 300 µM of 54%.
`Cc1ccc(/C=N/NC(=O)c2cc(Cl)ccc2NC(=O)c2cccc(CN(C)CCCN(C)Cc3cccc(C(=O)Nc4ccc(Cl)cc4C(=O)N/N=C/c4ccc(C)cc4)c3)c2)cc1` [Compound 702, N1-[4-Chloro-2-({2-[(E)-1-(4-methylphenyl)methylidene]-hydrazino}carbonyl}phenyl}-3-{[{3-[(3-{[4-chloro-2-({2-[(E)-1-(4-methylphenyl)methylidene]hydrazino}carbonyl}anilino}carbonyl}benzyl}(methyl)amino)propyl)(methyl)amino]methyl]benzamide] showed an inhibition at 300 µM of 49.2%.
Compound `O=c1c2cc(Cl)ccc2nc(-c2cccc(CSCCS(=O)(=O)O)c2)n1/N=C/c1ccc(Cl)c(C(F)(F)F)c1` [Compound 703, 2-(3-{6-Chloro-3-[(4-chloro-3-trifluoromethyl-benzylidene)-amino]-4-oxo-3,4-dihydro-quinazolin-2-yl}-benzylsulfanyl)-ethanesulfonic acid] has an inhibition at 300 µM of 57.9%.
`CN(CCCCCCN(C)Cc1cccc(C(=O)Nc2ccc(Cl)cc2C(=O)N/N=C/c2cccc(F)c2)c1)Cc1cccc(C(=O)Nc2ccc(Cl)cc2C(=O)N/N=C/c2cccc(F)c2)c1` [Compound 704, N1-[4-Chloro-2-({2-[(E)-1-(3-fluorophenyl)methylidene]hydrazino}carbonyl}phenyl}-3-{[{6-[(3-{[4-chloro-2-({2-[(E)-1-(3-fluorophenyl)methylidene]hydrazino}carbonyl}-anilino}carbonyl}benzyl}(methyl)amino)hexyl)(methyl)amino]methyl]-benzamide] was tested, and the inhibition at 300 µM was 46.6%.
`Cc1cccc(/C=N/NC(=O)c2cc(Cl)ccc2NC(=O)c2cccc(CN(C)CCCCCCN(C)Cc3cccc(C(=O)Nc4ccc(Cl)cc4C(=O)N/N=C/c4cccc(C)c4)c3)c2)c1` [Compound 705, N1-[4-Chloro-2-({2-[(E)-1-(3-methylphenyl)methylidene]hydrazino}carbonyl}phenyl}-3-{[{6-[(3-{[4-chloro-2-({2-[(E)-1-(3-methylphenyl)methylidene]hydrazino}carbonyl}-anilino}carbonyl}benzyl}(methyl)amino)hexyl)(methyl)amino]methyl]-benzamide] gave an inhibition at 300 µM of 44.7%.
`Cc1ccc(/C=N/NC(=O)c2cc(Cl)ccc2NC(=O)c2cccc(CN(C)CCCCCCN(C)Cc3cccc(C(=O)Nc4ccc(Cl)cc4C(=O)N/N=C/c4ccc(C)cc4)c3)c2)cc1` [Compound 706, N1-[4-Chloro-2-({2-[(E)-1-(4-methylphenyl)methylidene]hydrazino}carbonyl}phenyl}-3-{[{6-[(3-{[4-chloro-2-({2-[(E)-1-(4-methylphenyl)methylidene]hydrazino}carbonyl}-anilino}carbonyl}benzyl}(methyl)amino)hexyl)(methyl)amino]methyl]-benzamide] was tested, and the inhibition at 300 µM was 47.8%.
Work on `Cc1csc(C(=O)N/N=C/c2ccc(Cl)c(C(F)(F)F)c2)c1NC(=O)c1cccc(CN(CC(C)O)CC(C)O)c1` (stereo not shown) [Compound 707, 3-{[Bis-(2-hydroxy-propyl)-amino]-methyl}-N-[2-(4-chloro-3-trifluoromethyl-benzylidene-hydrazinocarbonyl)-4-methyl-thiophen-3-yl]-benzamide] yielded an inhibition at 300 µM of 41.2%.
Compound `O=C(Nc1ccc(Cl)cc1C(=O)N/N=C/c1ccc(F)cc1)c1cccc(CSCCS(=O)(=O)O)c1` [Compound 708, 2-{3-[4-Chloro-2-(4-fluoro-benzylidene-hydrazinocarbonyl)-phenylcarbamoyl]-benzylsulfanyl}-ethanesulfonic acid] has an inhibition at 300 µM of 42%.
`O=C(Nc1ccc(Cl)cc1C(=O)N/N=C/c1ccc(Cl)c(C(F)(F)F)c1)c1cccc(CSCCS(=O)(=O)O)c1` [Compound 709, 2-{3-[4-Chloro-2-(4-chloro-3-trifluoromethyl-benzylidene-hydrazinocarbonyl)-phenylcarbamoyl]-benzylsulfanyl}-ethanesulfonic acid] gave an inhibition at 300 µM of 59.4%.
With `CCN(CC)CCN(C)Cc1cccc(C(=O)Nc2c(C)csc2C(=O)N/N=C/c2ccc(C)cc2)c1` [Compound 710, 3-{[(2-Diethylamino-ethyl)-methyl-amino]-methyl}-N-[4-methyl-2-(4-methyl-benzylidene-hydrazinocarbonyl)-thiophen-3-yl]-benzamide] the inhibition at 300 µM was 83.1%.
Compound `CCN(CC)CCN(C)Cc1cccc(C(=O)Nc2c(C)csc2C(=O)N/N=C/c2ccc(C)c(C)c2)c1` [Compound 711, 3-{[(2-Diethylamino-ethyl)-methyl-amino]-methyl}-N-[2-(3,4-dimethyl-benzylidene-hydrazinocarbonyl)-4-methyl-thiophen-3-yl]-benzamide] has an inhibition at 300 µM of 81%.
In the case of `CCN(CC)CCN(C)Cc1cccc(C(=O)Nc2c(C)csc2C(=O)N/N=C/c2ccc(OC)cc2)c1` [Compound 712, 3-{[(2-Diethylamino-ethyl)-methyl-amino]-methyl}-N-[2-(4-methoxy-benzylidene-hydrazinocarbonyl)-4-methyl-thiophen-3-yl]-benzamide], the “Inhibition (%) (300 μM)” value is reported as 48.73%.
Work on `COc1ccc(/C=N/NC(=O)c2cc(Br)ccc2NC(=O)c2ccc(CNCCN3CCOCC3)cc2)cc1` [Compound 715, N-[4-Bromo-2-(4-methoxy-benzylidene-hydrazinocarbonyl)-phenyl]-4-[(2-morpholin-4-yl-ethylamino)-methyl]-benzamide] yielded an inhibition at 300 µM of 84.1%.
In the case of `COc1cccc(/C=N/NC(=O)c2cc(Br)ccc2NC(=O)c2ccc(CNCCN3CCOCC3)cc2)c1` [Compound 716, N-[4-Bromo-2-(3-methoxy-benzylidene-hydrazinocarbonyl)-phenyl]-4-[(2-morpholin-4-yl-ethylamino)-methyl]-benzamide], the inhibition at 300 µM is reported as 85.8%.
`Cc1ccc(/C=N/NC(=O)c2cc(Br)ccc2NC(=O)c2ccc(CN3CCN(c4ccc(F)cc4)CC3)cc2)cc1C` [Compound 717, N-[4-Bromo-2-(3,4-dimethyl-benzylidene-hydrazinocarbonyl)-phenyl]-4-[4-(4-fluoro-phenyl)-piperazin-1-ylmethyl]-benzamide] showed an inhibition at 300 µM of 53.5%.
